This note sets out measurements from EP0332387B1, “Triazole derivatives, their preparation and their use as fungicides” (Sankyo Company Limited, priority 1988, dated 1989).

Structures are written as SMILES. Some results are limits rather than exact numbers.

Common to all, as to format: in vivo
The subject of one experiment is Venturia inaequalis. Kind of experiment: Preventive activity against apple scab (Experiment 9). To be noted: apple seedlings sprayed at 300 ppm, inoculated after 24 hours, 3 days moist chamber then 10 days greenhouse; diseased area on third and fourth leaves. Here is the method: Apple seedlings at the 3 - 4 leaf stage were sprayed with an aqueous suspension of the test compound at a concentration of 300 ppm (30 ml/3 pots). The seedlings were then kept for 24 hours at room temperature, after which they were inoculated with the fungus, Venturia inaequalis, by spraying a spore suspension of the fungus over the seedlings. After inoculation, the seedlings were kept in a moist chamber for 3 days at 20 - 22 °C and then moved to a greenhouse at 20 - 22°C for 10 days. The disease controlling index was given on the basis of the diseased area on the third and fourth leaves.

The test system of experiment [1] is Erysiphe graminis f.sp. hordei. Briefly: Curative activity against powdery mildew of barley (Experiment 7). To be noted: barley seedlings (variety Sekishinriki), sprayed one day after inoculation at 3 ppm (30 ml/3 pots), further 10 days; diseased area on the first leaf. Here is the method: Barley seedlings (variety […]) at the first leaf stage were inoculated with conidia of Erysiphe graminis f.sp. hordei and kept in a greenhouse at 15 - 20°C. After one day, the seedlings were sprayed with an aqueous suspension of the test compound at a concentration of 3 ppm (30 ml/3 pots), and they continued to be kept in the greenhouse at that temperature for a further 10 days. The disease controlling index was given on the basis of the diseased area on the first leaf.

The next experiment deals with Puccinia recondita. Kind of experiment: Curative activity against leaf rust of wheat (Experiment 6). To be noted: wheat seedlings (variety Norin No 61), sprayed after inoculation at 3 ppm (30 ml/3 pots), 10 days; diseased area on the first leaf. As for the experimental part:
Wheat seedlings (variety Norin No 61) at the first leaf stage were inoculated with the fungus, Puccinia recondita, by spraying them with a spore suspension of the fungus. They were then kept in a moist chamber for 24 hours at 20 - 22 °C, after which they were moved to a greenhouse at 15 - 20 °C. […] The seedlings were then continuously kept in the greenhouse for 10 days. The disease controlling index was given on the basis of diseased area on the first leaf.

In experiment [2] the test system is Rhizoctonia solani. Kind of experiment: Preventive activity against sheath blight of rice plants (Experiment 2). Set-up: key: 0 = disease as untreated, 5 = no disease (complete control). To be noted: rice seedlings (variety Nihonbare), sprayed at 100 ppm (30 ml/3 pots) 24 hours before inoculation, 5 days; height of the lesions. Here is the method: Rice seedlings (variety Nihonbare) at the 4 - 5 leaf stage were sprayed with an aqueous suspension of the test compound at a concentration of 100 ppm (30 ml/3 pots). The seedlings were then kept for 24 hours at room temperature, after which they were inoculated with the fungus, Rhizoctonia solani, by placing 4 - 5 oat grains on which the fungus had previously been cultured around the base of each seedling. The seedlings were then kept in a moist chamber for 5 days at 25 - 27 °C. The disease controlling index was given on the basis of the height of the lesions formed on the rice seedlings.
Except in Table 12G, the compounds tested have the formula (1-1), in which Ar represents the group shown at the beginning of each part of the Table and R^1, R^2, X and Y are as defined in the Table.
(§1) The disease controlling index shown in the foregoing Tables 11 to 19 is indicated by the following codes: • 5--no disease (complete control) • 4--disease rate is less than 10% of the untreated plant • 3--disease rate is 10% - 30% of the untreated plant • 2--disease rate is 30% - 50% of the untreated plant • 1--disease rate is 50% - 70% of the untreated plant • 0--disease rate is almost same as the untreated plant.

For experiment [3], the system named is Rhizoctonia solani. Briefly: Preventive activity against sheath blight of rice plants by submerged application (Experiment 4). To be noted: rice seedlings (variety Nihonbare), applied to the water in the pots, 100 g per 10 ares, inoculated after 7 days, 5 days; height of the lesions.
Text: Rice seedlings (variety Nihonbare) at the 4 - 5 leaf stage grown in pots were flooded to a depth of 1 cm with water. The test compound was then applied to the water in the pots in an amount corresponding to 100 g per 10 ares. After keeping the seedlings in a greenhouse for 7 days, the water was drained from the pots and the seedlings were inoculated with the fungus, Rhizoctonia solani, by placing 4 - 5 oat grains on which the fungus had previously been cultured around the base of each seedling. The seedlings were then kept in a moist chamber for 5 days at 25 - 27 °C. The disease controlling index was given on the basis of the height of the lesions formed on the rice seedlings.
Except for Table 14F, the compounds tested have the formula (1-1), in which Ar represents the group shown at the beginning of each part of the Table and R^1, R^2, X and Y are as defined in the Table.
as §1

The test system of another experiment is Candida albicans. Kind of experiment: ED50 in mice infected with Candida albicans, oral treatment (Experiment 11). To be noted: treated orally. As for the experimental part: Groups of mice (each group contained 10 mice) were inoculated with 7 to 9 x 10^6 spores per mouse of Candida albicans. 1, 4, and 24 hours after the inoculation, each mouse was orally administered 20 mg/kg of the test compound each time. The anti-fungal activity was assessed by the survival rate 9 days after infection. The survival rate was recorded as 0% 2 days after infection in an untreated (control) group. […] Following essentially the same procedure as that described in Experiment 10, mice were infected with Candida albicans, and treated orally with various compounds of the invention, as shown in the following Table 21. Fifteen days after infection (or fourteen days in the case of the compounds of Example Nos. 5 and 10), ED50 values were determined and are reported in the following Table 21.

The next experiment deals with Sphaerotheca fuliginea. Kind of experiment: Preventive activity against powdery mildew of cucumber (Experiment 8). To be noted: cucumber seedlings sprayed at 300 ppm, inoculated after 24 hours, evaluated after 7 days in greenhouse; diseased area on third and fourth leaves. Here is the method: Cucumber seedlings (variety Sagamihanpaku) at the 3 - 4 leaf stage were sprayed with an aqueous suspension of the test compound at a concentration of 300 ppm (30 ml/3 pots). The seedlings were then kept for 24 hours at room temperature, after which they were inoculated with conidida of Sphaerotheca fuliginea. After keeping the seedlings in a greenhouse for 7 days, the disease controlling index was evaluated on the basis of the diseased area on the third and fourth leaves.

The subject of a further experiment is Gibberella Fujikuroi. Kind of experiment: Activity against bakanae disease of rice plants by seed soaking (Experiment 5). Set-up: key: 0 = disease as untreated, 5 = no disease (complete control). To be noted: infected rice seeds (variety Tanginbozu) immersed 3 days in aqueous suspension (concentration not given), 3 weeks; number of diseased seedlings. As for the experimental part: Ten grams of rice seeds (variety Tanginbozu), infected with Gibberella Fujikuroi, were immersed in 20 ml of an aqueous suspension of the test compound for 3 days. At the end of this time, the treated seeds were densely sown in soil in pots, and the pots were placed in a greenhouse at 20 - 30 °C for 3 weeks. The disease controlling index was given on the basis of the number of diseased seedlings.
(§2) The compounds tested have the formula (1-1), in which Ar represents the group shown at the beginning of each part of the Table and R^1, R^2, X and Y are as defined in the Table.
as §1

The next experiment has as its system Pyricularia oryzae. To be noted: rice seedlings (variety Sachikaze), sprayed 24 hours after inoculation at 10 ppm (30 ml/3 pots), further 6 days; number of lesions on the upper two leaves.
Experiment [4] deals with Rhizoctonia solani. Briefly: Curative activity against sheath blight of rice plants (Experiment 3). Set-up: key: 0 = disease as untreated, 5 = no disease (complete control). To be noted: rice seedlings (variety Nihonbare), sprayed 24 hours after inoculation at 10 ppm (30 ml/3 pots), further 5 days; height of the lesions. Here is the method:
Rice seedlings (variety Nihonbare) at the 4 - 5 leaf stage were inoculated with the fungus, Rhizoctonia solani, by placing 4 - 5 oat grains on which the fungus had previously been cultured around the base of each rice seedling and keeping them in a moist chamber at 25 - 27 °C. After 24 hours, the rice seedlings were sprayed with an aqueous suspension of the test compound at a concentration of 10 ppm (30 ml/3 pots) and they then continued to be kept in the moist chamber for a further 5 days. The disease controlling index was given on the basis of the height of the lesions formed on the rice seedlings.
as §2, §1

Setting [5] is: 336 h, fourteen days after infection (Example Nos. 5 and 10).
Setting [6] is: 360 h, fifteen days after infection.

The term ED50 denotes the dose at which the effect has come halfway, by size or by number of responders. As for `C[C@@H](NC(=O)c1ccc(Cl)cc1)[C@](O)(Cn1cncn1)c1ccc(Cl)cc1Cl` (relative stereo) [Example 5, (2R*, 3R*)-3-(4-Chlorobenzoylamino)-2-(2,4-dichlorophenyl)-1-(1H-1,2,4-triazol-1-yl)-2-butanol], the “Index (disease controlling index)” value with Venturia inaequalis and in the experiment on Sphaerotheca fuliginea was 5 in each case. Further, the disease controlling index in experiment [1] was 5; with Puccinia recondita it was 5; in the experiment with Rhizoctonia solani [2], 5; with Rhizoctonia solani [3], 4 (disease rate is less than 10% of the untreated plant). Also, the ED50 with Candida albicans (setting [5]) worked out at 7.07 mg/kg.

As to `C[C@@H](NC(=O)c1ccc(C(F)(F)F)cc1)[C@](O)(Cn1cncn1)c1ccc(F)cc1F` (relative stereo) [Example 17, (2R*, 3R*)-2-(2,4-0ifluorophenyl)-1-(1H-1,2,4-triazol-1-yl)-3-(4-trifluoromethylbenzoylamino)-2-butanol], the disease controlling index in the experiment on Gibberella Fujikuroi is given as 4 (disease rate is less than 10% of the untreated plant); in experiment [1], 5; in the experiment with Puccinia recondita, 5; with Rhizoctonia solani [2], 4 (disease rate is less than 10% of the untreated plant); in the experiment on Pyricularia oryzae it was 5; with Rhizoctonia solani [4], 4 (disease rate is less than 10% of the untreated plant). This compound yielded an ED50 in the experiment on Candida albicans (setting [6]) of 0.86 mg/kg. For the same compound, in the experiment with Sphaerotheca fuliginea, the “Index (disease controlling index)” value is on record as 4 (disease rate is less than 10% of the untreated plant).

As to `C[C@@H](SC(=O)c1ccc(C(F)(F)F)cc1)[C@](O)(Cn1cncn1)c1ccc(Cl)cc1Cl` (relative stereo) [Example 46, (2R*, 3R*)-2-(2,4-Dichlorophenyl)-1-(1H-1 ,2,4-triazol-1-yl)-3-[4-(trifluoromethyl)benzoylthio]-2-butanol], the “Index (disease controlling index)” value in the experiment with Venturia inaequalis and with Sphaerotheca fuliginea was 5 each time. The same compound showed a 50% effective dose (ED50) in the experiment on Candida albicans (setting [6]) of 0.73 mg/kg.

Consider `C[C@@H](N(C)C(=O)c1ccc(C(F)(F)F)cc1)[C@](O)(Cn1cncn1)c1ccc(F)cc1F` (relative stereo) [Example 59, (2R^*, 3R*)-2-(2,4-Difluorophenyl)-3-{N-methyl-N-[4-(trifluoromethyl)benzoyl]amino}-1-(1H-1,2,4-triazol-1-yl)-2-butanol], for which the disease controlling index with Gibberella Fujikuroi is recorded as 4 (disease rate is less than 10% of the untreated plant); with Rhizoctonia solani [2], 5; with Rhizoctonia solani [3] it was 4 (disease rate is less than 10% of the untreated plant); in the experiment on Rhizoctonia solani [4], 5. The “Index (disease controlling index)” value in the experiment with Venturia inaequalis and in the experiment with Sphaerotheca fuliginea was 5 throughout. Further, in the experiment with Candida albicans (setting [6]), the 50% effect level (ED50) was put at a dose of 0.66 mg/kg.

Turning to `C[C@@H](NC(=O)c1ccc(Cl)cc1)[C@](O)(Cn1cncn1)c1ccc(Cl)cc1Cl` [Example 10, (2R, 3R)-3-(4-Chlorobenzoylamino)-2-(2,4-dichlorophenyl)-1-(1H-1,2,4-triazol-1-yl)-2-butanol], the disease controlling index with Gibberella Fujikuroi was 5; in the experiment with Rhizoctonia solani [2], 5; with Pyricularia oryzae, 4 (disease rate is less than 10% of the untreated plant); in the experiment with Rhizoctonia solani [4], 5. Further, the “Index (disease controlling index)” value in the experiment on Venturia inaequalis and in the experiment on Sphaerotheca fuliginea was 5 throughout. Also, the ED50 in the experiment on Candida albicans (setting [5]) was under 2.5 mg/kg.

Turning to `C[C@@H](NC(=O)c1ccc(C(F)(F)F)cc1F)[C@](O)(Cn1cncn1)c1ccc(F)cc1F` [Example 65], the disease controlling index in the experiment on Gibberella Fujikuroi is given as 4 (disease rate is less than 10% of the untreated plant); in [1], 5; in the experiment with Puccinia recondita it was 5; in the experiment on Rhizoctonia solani [2] it was 5; in the experiment with Pyricularia oryzae it was 5; with Rhizoctonia solani [4], 5. The ED50 in the experiment with Candida albicans (setting [6]) is under 0.625 mg/kg. In the experiment with Sphaerotheca fuliginea, the “Index (disease controlling index)” value was 5.
